Data: US7517884B2 (Kalypsys Inc., priority 1998, dated 2009)

How the values were obtained:
Format in all cases: cell-based, murine and human
Settings in all cases: GAL4-PPAR LBD chimera
PPAR-delta = biological target: T1, PPAR-delta (UniProt Q03181); experiment: PPAR-delta transactivation assay (GAL4 chimera, luciferase reporter) in CV-1 cells
T1 sequence (Q03181 1-441): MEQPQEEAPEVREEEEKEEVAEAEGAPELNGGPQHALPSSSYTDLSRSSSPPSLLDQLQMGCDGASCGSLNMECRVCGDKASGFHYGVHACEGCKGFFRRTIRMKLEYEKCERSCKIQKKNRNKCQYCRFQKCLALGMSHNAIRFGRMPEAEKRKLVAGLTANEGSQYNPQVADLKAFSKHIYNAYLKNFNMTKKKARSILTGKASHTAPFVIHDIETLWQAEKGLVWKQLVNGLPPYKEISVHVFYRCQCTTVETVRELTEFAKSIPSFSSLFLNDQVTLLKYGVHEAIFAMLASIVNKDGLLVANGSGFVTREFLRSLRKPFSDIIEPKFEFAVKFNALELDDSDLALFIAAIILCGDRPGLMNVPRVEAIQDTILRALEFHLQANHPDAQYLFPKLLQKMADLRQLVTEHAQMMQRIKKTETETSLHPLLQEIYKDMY
Text: (§1) Compounds may be screened for functional potency in transient transfection assays in CV-1 cells for their ability to activate the PPAR subtypes (transactivation assay). A previously established chimeric receptor system was utilized to allow comparison of the relative transcriptional activity of the receptor subtypes on the same synthetic response element and to prevent endogenous receptor activation from complicating the interpretation of results. See, for example, Lehmann, J. M.; Moore, L. B.; Smith-Oliver, T. A; Wilkinson, W. O.; Willson, T. M.; Kliewer, S. A., An antidiabetic thiazolidinedione is a high affinity ligand for peroxisome proliferator-activated receptor […], J. Biol. Chem., 1995, 270, 12953-6. The ligand binding domains for murine and human PPAR-alpha, PPAR-gamma, and PPAR-delta are each fused to the yeast transcription factor GAL4 DNA binding domain. CV-1 cells were transiently transfected with expression vectors for the respective PPAR chimera along with a reporter construct containing four or five copies of the GAL4 DNA binding site driving expression of luciferase. After 8-16 h, the cells are replated into multi-well assay plates and the media is exchanged to phenol-red free DME medium supplemented with 5% delipidated calf serum. 4 hours after replating, cells were treated with either compounds or 1% DMSO for 20-24 hours. Luciferase activity was then assayed with Britelite (Perkin Elmer) following the manufacturer's protocol and measured with either the Perkin Elmer Viewlux or Molecular Devices Acquest (see, for example, Kliewer, S. A., et. al. Cell 1995, 83, 813-819). Rosiglitazone is used as a positive control in the PPARγ assay. Wy-14643 and GW7647 are used as positive controls in the PPARα assay. GW501516 is used as the positive control in the PPARδ assay.
(§2) Compounds of Examples 1-141 were assayed to measure their biological activity with respect to their EC50 values for modulating PPAR-alpha, PPAR-gamma, and PPAR-delta as set forth in Table 1.

PPAR-alpha = biological target: T2, PPAR-alpha (UniProt Q07869); experiment: PPAR-alpha transactivation assay (GAL4 chimera, luciferase reporter) in CV-1 cells
T2 sequence (Q07869 1-468): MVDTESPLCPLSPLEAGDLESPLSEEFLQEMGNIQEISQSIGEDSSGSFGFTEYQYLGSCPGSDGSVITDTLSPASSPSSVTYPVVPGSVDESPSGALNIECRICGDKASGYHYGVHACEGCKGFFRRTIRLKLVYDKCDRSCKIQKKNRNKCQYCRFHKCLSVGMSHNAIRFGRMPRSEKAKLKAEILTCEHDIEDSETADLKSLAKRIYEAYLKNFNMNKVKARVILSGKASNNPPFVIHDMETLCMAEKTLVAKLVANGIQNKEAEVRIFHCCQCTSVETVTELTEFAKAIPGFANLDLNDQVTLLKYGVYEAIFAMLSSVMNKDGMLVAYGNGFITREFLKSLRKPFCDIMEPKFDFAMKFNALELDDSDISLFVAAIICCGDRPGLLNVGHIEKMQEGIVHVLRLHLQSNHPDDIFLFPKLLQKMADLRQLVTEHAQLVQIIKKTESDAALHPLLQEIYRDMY
Text: as §1, §2

PPAR-gamma = biological target: T3, PPAR-gamma (UniProt P37231); experiment: PPAR-gamma transactivation assay (GAL4 chimera, luciferase reporter) in CV-1 cells
T3 sequence (P37231 1-505): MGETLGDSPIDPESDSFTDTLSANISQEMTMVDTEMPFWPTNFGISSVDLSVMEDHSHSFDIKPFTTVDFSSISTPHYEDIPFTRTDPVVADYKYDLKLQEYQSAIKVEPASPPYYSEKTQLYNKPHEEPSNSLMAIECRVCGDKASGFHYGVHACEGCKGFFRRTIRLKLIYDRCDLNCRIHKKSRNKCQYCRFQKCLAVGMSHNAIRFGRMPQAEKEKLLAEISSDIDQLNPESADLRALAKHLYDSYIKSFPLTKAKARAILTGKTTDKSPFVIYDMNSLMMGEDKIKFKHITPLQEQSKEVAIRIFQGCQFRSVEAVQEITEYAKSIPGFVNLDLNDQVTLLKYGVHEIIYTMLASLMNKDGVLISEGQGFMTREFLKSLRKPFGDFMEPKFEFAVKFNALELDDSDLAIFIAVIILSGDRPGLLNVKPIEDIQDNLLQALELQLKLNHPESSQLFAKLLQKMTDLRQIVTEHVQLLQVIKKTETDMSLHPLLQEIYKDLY
Text: as §1, §2

Row | SMILES | EC50 (PPAR-delta) [µM] | EC50 (PPAR-alpha) [µM] | EC50 (PPAR-gamma) [µM]
1 | C[C@@H]1CN(c2ccc(C(F)(F)F)c(Cl)c2)C[C@H](C)N1S(=O)(=O)c1cccc2c1CC(C(=O)O)C2 (single isomer, unassigned) [Example 138, 4-(4-(3-chloro-4-(trifluoromethyl)phenyl)-cis-2,6-dimethylpiperazin-1-ylsulfonyl)-2,3-dihydro-1H-indene-2-carboxylic acid] | < 5 | > 100 | > 100
2 | C[C@@H]1CN(c2ccc(C(F)(F)F)c(Cl)c2)C[C@H](C)N1S(=O)(=O)c1cccc2c1CC(C(=O)O)C2 (single isomer, unassigned) [Example 139, 4-(4-(3-chloro-4-(trifluoromethyl)phenyl)-cis-2,6-dimethylpiperazin-1-ylsulfonyl)-2,3-dihydro-1H-indene-2-carboxylic acid] | 5 to 100 | > 100 | > 100
3 | C[C@@H]1CN(Cc2ccc(OC(F)(F)F)cc2)C[C@H](C)N1S(=O)(=O)c1cccc2c1CC(C(=O)O)C2 (single isomer, unassigned) [Example 140] | < 5 | > 100 | 5 to 100
4 | C[C@@H]1CN(Cc2ccc(OC(F)(F)F)cc2)C[C@H](C)N1S(=O)(=O)c1cccc2c1CC(C(=O)O)C2 (single isomer, unassigned) [Example 141] | 5 to 100 | > 100 | > 100
5 | C[C@@H]1[C@H](C)N(c2ccc(C(F)(F)F)cn2)CCN1S(=O)(=O)c1ccc2c(c1)C(C(=O)O)CC2 (stereo in doubt) [Example 86, 6-[2,3-Dimethyl-4-(5-trifluoromethyl-pyridin-2-yl)-piperazine-1-sulfonyl]-indan-1-carboxylic acid] | < 5 | < 5 | < 5
6 | C[C@@H]1[C@H](C)N(c2ccc(C(F)(F)F)cn2)CCN1S(=O)(=O)c1ccc2scc(CC(=O)O)c2c1 (stereo in doubt) [Example 87, {5-[2,3-Dimethyl-4-(5-trifluoromethyl-pyridin-2-yl)-piperazine-1-sulfonyl]-benzo[b]thiophen-3-yl}-acetic acid] | < 5 | 5 to 100 | < 5
7 | O=C(O)CC1Cc2ccc(S(=O)(=O)N3CCN(c4ccc(C(F)(F)F)cc4)CC3)cc2C1 (stereo not drawn) [Example 1, {5-[4-(4-trifluoromethylphenyl)-piperazine-1-sulfonyl]-indan-2-yl}-acetic acid] | 5 to 100 | 5 to 100 | 5 to 100
8 | O=C(O)CC1Cc2cccc(S(=O)(=O)N3CCN(c4ccc(C(F)(F)F)cc4)CC3)c2C1 (stereo not drawn) [Example 2, {4-[4-(4-trifluoromethyl-phenyl)-piperazine-1-sulfonyl]-indan-2-yl}-acetic acid] | < 5 | > 100 | 5 to 100
9 | O=C(O)CC1Cc2ccc(S(=O)(=O)N3CCN(c4ccc(Cl)c(Cl)c4)CC3)cc2C1 (stereo not drawn) [Example 3, {5-[4-(3,4-dichlorophenyl)-piperazine-1-sulfonyl]-indan-2-yl}-acetic acid] | 5 to 100 | 5 to 100 | 5 to 100
10 | O=C(O)CC1Cc2cccc(S(=O)(=O)N3CCN(c4ccc(Cl)c(Cl)c4)CC3)c2C1 (stereo not drawn) [Example 4, {4-[4-(3,4-dichlorophenyl)-piperazine-1-sulfonyl]-indan-2-yl}-acetic acid] | 5 to 100 | > 100 | > 100
11 | O=C(O)C1Cc2ccc(S(=O)(=O)N3CCN(c4ccc(C(F)(F)F)cc4)CC3)cc2C1 (stereo not drawn) [Example 5, 5-[4-(4-trifluoromethyl-phenyl)-piperazine-1-sulfonyl]-indan-2-carboxylic acid] | < 5 | 5 to 100 | 5 to 100
12 | O=C(O)C1Cc2cccc(S(=O)(=O)N3CCN(c4ccc(C(F)(F)F)cc4)CC3)c2C1 (stereo not drawn) [Example 6, 4-[4-(4-trifluoromethyl-phenyl)-piperazine-1-sulfonyl]-indan-2-carboxylic acid] | < 5 | > 100 | < 5
13 | O=C(O)C1Cc2ccc(S(=O)(=O)N3CCN(c4ccc(Cl)c(Cl)c4)CC3)cc2C1 (stereo not drawn) [Example 7, 5-[4-(3,4-dichlorophenyl)-piperazine-1-sulfonyl]-indan-2-carboxylic acid] | < 5 | 5 to 100 | 5 to 100
14 | O=C(O)C1Cc2cccc(S(=O)(=O)N3CCN(c4ccc(Cl)c(Cl)c4)CC3)c2C1 (stereo not drawn) [Example 8, 4-[4-(3,4-dichlorophenyl)-piperazine-1-sulfonyl]-indan-2-carboxylic acid] | < 5 | 5 to 100 | < 5
15 | O=C(O)C1Cc2ccc(S(=O)(=O)N3CCN(c4ccc(C(F)(F)F)cn4)CC3)cc2C1 (stereo not drawn) [Example 9] | < 5 | 5 to 100 | 5 to 100
16 | CC1(C(=O)O)Cc2ccc(S(=O)(=O)N3CCN(c4ccc(C(F)(F)F)cn4)CC3)cc2C1 (stereo not drawn) [Example 13, 2-methyl-5-[4-(5-trifluoromethyl-pyridin-2-yl)-piperazine-1-sulfonyl]-indan-2-carboxylic acid] | < 5 | 5 to 100 | 5 to 100
17 | CC1(C(=O)O)Cc2cccc(S(=O)(=O)N3CCN(c4ccc(C(F)(F)F)cn4)CC3)c2C1 (stereo not drawn) [Example 14, 2-methyl-4-[4-(5-trifluoromethyl-pyridin-2-yl)-piperazine-1-sulfonyl]-indan-2-carboxylic acid] | 5 to 100 | > 100 | 5 to 100
18 | O=C(O)C1Cc2ccc(S(=O)(=O)N3CCN(c4cccc(C(F)(F)F)c4)CC3)cc2C1 (stereo not drawn) [Example 15, 5-[4-(3-trifluoromethyl-phenyl)-piperazine-1-sulfonyl]-indan-2-carboxylic acid] | 5 to 100 | 5 to 100 | 5 to 100
19 | O=C(O)C1Cc2cccc(S(=O)(=O)N3CCN(c4cccc(C(F)(F)F)c4)CC3)c2C1 (stereo not drawn) [Example 16, 4-[4-(3-trifluoromethyl-phenyl)-piperazine-1-sulfonyl]-indan-2-carboxylic acid] | < 5 | 5 to 100 | 5 to 100
20 | O=C(O)C1Cc2ccc(S(=O)(=O)N3CC=C(c4ccc(C(F)(F)F)cc4)CC3)cc2C1 (stereo not drawn) [Example 17, 5-[4-(4-trifluoromethyl-phenyl)-3,6-dihydro-2H-pyridine-1-sulfonyl]-indan-2-carboxylic acid] | 5 to 100 | 5 to 100 | 5 to 100
21 | O=C(O)C1Cc2cccc(S(=O)(=O)N3CC=C(c4ccc(C(F)(F)F)cc4)CC3)c2C1 (stereo not drawn) [Example 18, 4-[4-(4-trifluoromethyl-phenyl)-3,6-dihydro-2H-pyridine-1-sulfonyl]-indan-2-carboxylic acid] | < 5 | 5 to 100 | 5 to 100
